ChEMBL document CHEMBL1201862, “PubChem BioAssay data set” (2004)
Activity calls are given as the source filed them.

What was measured:
[1] = molecular target: T1, Short transient receptor potential channel 4 (Mus musculus, UniProt Q9QUQ5); experiment: mouse TRPC4 channel inhibitors, dose response, cell-based, HEK293 TRPC4/mu-opioid, Fluo-4 calcium (AID 434942); assay type: functional;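 note: potency of inhibitors blocking the TRPC4 calcium response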
T1 sequence (Q9QUQ5 whole entry): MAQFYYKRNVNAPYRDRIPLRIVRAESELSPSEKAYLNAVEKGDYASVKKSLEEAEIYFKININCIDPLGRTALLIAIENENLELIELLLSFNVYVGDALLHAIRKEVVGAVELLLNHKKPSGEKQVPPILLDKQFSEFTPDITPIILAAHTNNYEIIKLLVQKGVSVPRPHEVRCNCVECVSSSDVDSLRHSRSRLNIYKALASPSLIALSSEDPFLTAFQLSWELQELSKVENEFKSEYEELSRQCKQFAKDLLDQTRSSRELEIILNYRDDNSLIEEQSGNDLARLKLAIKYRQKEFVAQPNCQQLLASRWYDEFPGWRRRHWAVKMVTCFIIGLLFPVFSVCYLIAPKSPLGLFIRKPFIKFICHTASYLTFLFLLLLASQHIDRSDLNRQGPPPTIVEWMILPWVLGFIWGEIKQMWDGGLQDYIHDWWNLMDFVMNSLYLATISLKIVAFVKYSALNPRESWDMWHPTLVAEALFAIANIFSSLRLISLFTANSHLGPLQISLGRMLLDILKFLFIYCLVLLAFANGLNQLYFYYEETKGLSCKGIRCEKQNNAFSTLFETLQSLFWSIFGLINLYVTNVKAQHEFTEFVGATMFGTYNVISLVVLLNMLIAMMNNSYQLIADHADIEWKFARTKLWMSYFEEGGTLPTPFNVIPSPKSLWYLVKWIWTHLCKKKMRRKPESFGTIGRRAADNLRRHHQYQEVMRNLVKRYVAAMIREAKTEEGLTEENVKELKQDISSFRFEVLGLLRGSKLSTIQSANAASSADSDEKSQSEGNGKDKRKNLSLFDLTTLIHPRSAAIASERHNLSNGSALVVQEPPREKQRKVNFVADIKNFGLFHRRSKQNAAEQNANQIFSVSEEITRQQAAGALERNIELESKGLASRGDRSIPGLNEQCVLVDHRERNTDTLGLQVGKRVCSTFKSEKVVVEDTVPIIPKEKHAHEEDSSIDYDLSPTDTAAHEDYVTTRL

Nonstructural protein 1 = Nonstructural protein 1 (Influenza A virus, UniProt Q194T2); assay type: functional, Influenza A virus (A/California/07/2009(H1N1))
Chain of Nonstructural protein 1 (Q194T2 whole entry): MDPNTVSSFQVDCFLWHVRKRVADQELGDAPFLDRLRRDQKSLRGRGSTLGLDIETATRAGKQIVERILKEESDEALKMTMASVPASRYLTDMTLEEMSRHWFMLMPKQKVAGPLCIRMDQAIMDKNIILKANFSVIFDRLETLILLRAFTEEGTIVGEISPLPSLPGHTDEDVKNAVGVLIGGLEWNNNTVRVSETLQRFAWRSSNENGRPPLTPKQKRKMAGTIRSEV

BJ [2] = experiment: cytotoxicity toward BJ-TERT fibroblasts, dose response, cell-based, RAS-independent, luminescence (AID 1933); assay type: functional; conditions: Homo sapiens
BJ [3] = experiment: cells; assay type: functional, cell-based; conditions: Homo sapiens
[4] = molecular target: Luciferin 4-monooxygenase (Photinus pyralis, UniProt P08659); experiment: firefly luciferase enzyme inhibitors, dose response, biochemical, luminescence (AID 1891)
Chain of Luciferin 4-monooxygenase (P08659 whole entry): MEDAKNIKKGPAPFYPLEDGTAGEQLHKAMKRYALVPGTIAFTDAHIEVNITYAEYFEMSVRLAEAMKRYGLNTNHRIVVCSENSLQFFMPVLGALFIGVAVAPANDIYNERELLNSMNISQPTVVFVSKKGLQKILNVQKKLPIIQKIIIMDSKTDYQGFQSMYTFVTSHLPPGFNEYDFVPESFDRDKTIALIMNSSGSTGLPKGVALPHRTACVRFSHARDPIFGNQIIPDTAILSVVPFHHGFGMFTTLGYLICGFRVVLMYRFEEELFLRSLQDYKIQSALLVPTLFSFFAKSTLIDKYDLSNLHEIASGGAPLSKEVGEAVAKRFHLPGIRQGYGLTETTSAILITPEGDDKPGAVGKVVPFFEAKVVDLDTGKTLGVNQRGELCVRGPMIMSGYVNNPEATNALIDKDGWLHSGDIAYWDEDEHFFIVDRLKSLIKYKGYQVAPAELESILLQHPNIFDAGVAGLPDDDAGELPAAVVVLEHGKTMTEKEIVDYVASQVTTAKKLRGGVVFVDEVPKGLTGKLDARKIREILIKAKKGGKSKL

[5] = Luminescence Cell-Based Dose Confirmation HTS to Identify Inhibitors of Platelet Dense Granule Release. [Related pubchem assays: 1663 (Primary HTS), 1678 (Summary of Project)]; assay type: functional
BJ [6] = experiment: cytotoxicity toward BJ-TERT-LT-ST fibroblasts, dose response, cell-based, RAS-independent, luminescence (AID 1935); assay type: functional; conditions: Homo sapiens;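 note: BJ fibroblasts immortalized with TERT plus LT and ST oncogenes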
[7] = cytotoxicity toward DRD oncogenic fibroblasts, dose response, cell-based, non-viral oncogenic, luminescence (AID 1934); assay type: functional; conditions: Homo sapiens
[8] = A cytotoxicity screen of small molecule inhibitors of the PhoP region in Salmonella typhi identified in the primary screen. [Related pubchem assays: 1850, 1864, 1985 ]; assay type: functional
[9] = molecular target: T2, Replicative DNA helicase DnaB (Mycobacterium tuberculosis, UniProt P9WMR3); experiment: DnaB intein splicing inhibitors, dose response, biochemical, cell-free fluorescence (AID 449749); assay type: functional
T2 sequence (P9WMR3 whole entry): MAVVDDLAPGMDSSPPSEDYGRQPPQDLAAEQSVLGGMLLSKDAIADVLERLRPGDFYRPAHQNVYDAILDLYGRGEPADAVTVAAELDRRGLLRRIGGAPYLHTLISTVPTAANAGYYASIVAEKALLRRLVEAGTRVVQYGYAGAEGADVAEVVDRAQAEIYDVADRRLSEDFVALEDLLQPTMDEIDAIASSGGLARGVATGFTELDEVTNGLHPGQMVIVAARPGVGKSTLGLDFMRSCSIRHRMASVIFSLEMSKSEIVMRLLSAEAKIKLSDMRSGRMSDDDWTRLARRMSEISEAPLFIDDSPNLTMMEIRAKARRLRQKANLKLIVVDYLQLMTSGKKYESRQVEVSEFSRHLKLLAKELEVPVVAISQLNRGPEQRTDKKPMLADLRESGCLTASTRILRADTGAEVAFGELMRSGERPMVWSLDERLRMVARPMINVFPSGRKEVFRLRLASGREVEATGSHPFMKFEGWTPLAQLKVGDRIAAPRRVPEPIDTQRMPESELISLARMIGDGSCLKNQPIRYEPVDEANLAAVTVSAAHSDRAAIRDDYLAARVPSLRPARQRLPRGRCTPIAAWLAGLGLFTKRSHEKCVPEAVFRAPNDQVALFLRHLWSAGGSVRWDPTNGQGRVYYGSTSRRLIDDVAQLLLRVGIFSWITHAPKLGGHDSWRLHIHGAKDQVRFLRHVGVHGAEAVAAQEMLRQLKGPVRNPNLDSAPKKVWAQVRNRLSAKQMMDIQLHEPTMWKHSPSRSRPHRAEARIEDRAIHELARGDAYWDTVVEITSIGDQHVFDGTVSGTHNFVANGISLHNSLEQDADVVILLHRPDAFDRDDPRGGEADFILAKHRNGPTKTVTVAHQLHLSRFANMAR

Protein RecA = molecular target: T3, Protein RecA (Mycobacterium tuberculosis, UniProt P9WHJ3); experiment: Fluorescence Cell-Free Homogeneous Dose Retest to Identify Inhibitors of RecA-Intein Splicing Activity. [Related pubchem assays (depositor defined):AID2097, AID2223, AID489010, AID492950]; assay type: functional
T3 sequence (P9WHJ3 whole entry): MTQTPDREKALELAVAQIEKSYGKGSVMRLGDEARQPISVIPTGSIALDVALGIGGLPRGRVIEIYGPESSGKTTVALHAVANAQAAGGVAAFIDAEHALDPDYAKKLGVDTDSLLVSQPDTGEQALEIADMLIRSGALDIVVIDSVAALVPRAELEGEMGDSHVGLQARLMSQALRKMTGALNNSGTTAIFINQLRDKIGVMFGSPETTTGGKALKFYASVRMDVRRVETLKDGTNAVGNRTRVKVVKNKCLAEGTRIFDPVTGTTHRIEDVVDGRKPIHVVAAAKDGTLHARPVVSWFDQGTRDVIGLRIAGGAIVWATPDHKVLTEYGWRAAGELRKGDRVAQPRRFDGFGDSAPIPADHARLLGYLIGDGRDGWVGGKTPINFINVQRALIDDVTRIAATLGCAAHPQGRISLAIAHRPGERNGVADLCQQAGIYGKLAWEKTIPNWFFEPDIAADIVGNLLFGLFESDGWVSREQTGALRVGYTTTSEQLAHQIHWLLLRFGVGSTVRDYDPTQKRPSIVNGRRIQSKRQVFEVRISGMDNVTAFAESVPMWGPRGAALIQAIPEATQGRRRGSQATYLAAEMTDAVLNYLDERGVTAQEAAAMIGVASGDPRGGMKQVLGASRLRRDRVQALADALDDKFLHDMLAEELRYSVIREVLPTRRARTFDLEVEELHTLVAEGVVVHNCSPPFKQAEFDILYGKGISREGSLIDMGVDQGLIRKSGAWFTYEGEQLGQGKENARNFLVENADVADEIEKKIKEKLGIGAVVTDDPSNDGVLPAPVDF

[10] = molecular target: Glyceraldehyde-3-phosphate dehydrogenase (Homo sapiens, UniProt P04406)
Chain of Glyceraldehyde-3-phosphate dehydrogenase (P04406 whole entry): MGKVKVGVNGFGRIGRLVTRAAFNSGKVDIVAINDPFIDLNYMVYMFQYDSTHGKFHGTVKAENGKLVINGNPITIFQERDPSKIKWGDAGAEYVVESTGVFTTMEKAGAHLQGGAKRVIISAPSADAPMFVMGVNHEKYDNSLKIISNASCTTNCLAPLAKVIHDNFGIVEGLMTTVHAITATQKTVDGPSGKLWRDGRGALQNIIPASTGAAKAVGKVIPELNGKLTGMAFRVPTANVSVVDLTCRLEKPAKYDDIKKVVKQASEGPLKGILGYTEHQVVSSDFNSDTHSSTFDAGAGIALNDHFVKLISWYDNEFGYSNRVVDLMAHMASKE

[11] = inhibitors of firefly luciferase expression or activity, dose response, H4 neuroglioma cells, luminescence (AID 1990); assay type: functional, cell-based
[12] = Luminescence Cell-Based Dose Response HTS to Identify Inhibitors of 5'UTR Stem-Loop Driven Prion Protein mRNA Translation in H4 Neuroglioblastoma Cells. [Related pubchem assays: 1827 (Project Summary), 1813 (Primary HTS)]; assay type: functional
[13] = inhibitors of SNCA 5'UTR-driven reporter translation, confirmation, H4 neuroglioma cells, luminescence (AID 1988); assay type: functional, cell-based
[14] = molecular target: T4, Microphthalmia-associated transcription factor (Homo sapiens, UniProt O75030); experiment: TRPM1 promoter luciferase signal decrease, dose response, MITF inhibitor project, cell-based, SK-MEL-5, cherry-picked, set 3 (AID 493073); assay type: functional
T4 sequence (O75030 whole entry): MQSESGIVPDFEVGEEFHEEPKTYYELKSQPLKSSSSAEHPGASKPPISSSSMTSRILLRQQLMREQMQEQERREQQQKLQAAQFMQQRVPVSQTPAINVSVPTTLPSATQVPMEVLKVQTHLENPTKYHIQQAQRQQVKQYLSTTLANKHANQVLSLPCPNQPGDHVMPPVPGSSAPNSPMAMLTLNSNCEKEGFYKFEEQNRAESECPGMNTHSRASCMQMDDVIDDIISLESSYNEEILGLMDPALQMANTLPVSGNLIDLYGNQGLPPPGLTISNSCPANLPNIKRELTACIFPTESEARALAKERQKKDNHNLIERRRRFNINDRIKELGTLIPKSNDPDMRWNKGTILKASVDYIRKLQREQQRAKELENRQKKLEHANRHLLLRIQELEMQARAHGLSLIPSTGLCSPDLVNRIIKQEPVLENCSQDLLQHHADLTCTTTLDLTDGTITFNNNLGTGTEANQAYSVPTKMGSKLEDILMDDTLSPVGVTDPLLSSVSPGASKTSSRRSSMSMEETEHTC

With `CN1CCN(Cc2c[nH]nc2-c2ccc(F)cc2F)[C@@H](c2ccccc2)C1` as the compound, how does the EC50 [1] read?
Its EC50 is 4.22 µM (active).

Which IC50 (Nonstructural protein 1) does the source give for `CCC1CCCCN1c1nc(-c2cccc(OC)c2O)nc2ccccc12` (stereo unspecified) here?
Its IC50 is > 100 µM (active).

Which EC50 [1] does the source give for `OCCNc1nc2ccccc2n1CCN1CCCCC1` here?
The EC50 was 3.35 µM (active).

Which results are given for `Cc1ccsc1C(=O)Nc1ccc(OCc2ccccc2)cc1`?
EC50 (BJ [2]): > 150 µM (not active); EC50 (BJ [3]): 34.4 µM (active); EC50 [4]: 1.7 µM (active); EC50 [5]: 5.83 µM (active); EC50 (BJ [6]): > 150 µM (not active); EC50 [7]: > 150 µM (inconclusive)

Which IC50 (Nonstructural protein 1) does the source give for `O=C1C(=C(c2ccccc2)c2ccccc2)Nc2ccccc21` here?
The IC50 was 30.3 µM (active).

For `Cc1ccc(SCc2n[nH]c3c2C(c2cccnc2)C(C#N)=C(N)O3)cc1` (stereo unspecified), which EC50 [8] is on record?
Its EC50 is > 50 µM (active).

Which EC50 [8] does the source give for `CC1CC1C(=O)Nc1nc2ccc(S(C)(=O)=O)cc2s1` (stereo unspecified) here?
The EC50 was > 50 µM (active).

Which EC50 (BJ [2]) does the source give for `O=C(CCl)N(Cc1cccc([N+](=O)[O-])c1)c1cccc(Cl)c1` here?
The EC50 was 0.25 µM (active).

And the EC50 (BJ [3])?
Its EC50 is 1.41 µM (inconclusive).

What about the EC50 (BJ [6]) of the same compound?
Its EC50 is 4.87 µM (inconclusive).

What about the EC50 [7] of the same compound?
The EC50 was 1.22 µM (active).

What about the AC50 [9] of the same compound?
Its AC50 is 5.28 µM (active).

And the EC50 (Protein RecA)?
Its EC50 is 0.512 µM (active).

Which IC50 [10] does the source give for `COc1cccc(N2C(=O)C(Cl)=C(N3CCN(C)CC3)C2=O)c1` here?
Its IC50 is > 50 µM (inconclusive).

Which EC50 [11] does the source give for `COC(=O)c1ccc(Nc2cc(C)nc3ccccc23)cc1` here?
Its EC50 is 11.6 µM (active).

What about the EC50 [12] of the same compound?
Its EC50 is 16.4 µM (active).

And the EC50 [13]?
Its EC50 is 7.97 µM (active).

What about the EC50 [1] of the same compound?
Its EC50 is 3.76 µM (active).

For `Cc1noc(C)c1S(=O)(=O)N1CCC(Cc2ccccc2)CC1`, which EC50 [8] is on record?
Its EC50 is > 50 µM (active).

Which IC50 [10] does the source give for `O=C1C(Cl)=C(N2CCOCC2)C(=O)N1c1ccc(C(F)(F)F)cc1` here?
Its IC50 is > 50 µM (inconclusive).

With `Cc1ccc(N2C(=O)C(Cl)=C(N3CCN(C)CC3)C2=O)cc1` as the compound, how does the IC50 [10] read?
Its IC50 is > 50 µM (inconclusive).

With `Fc1cccc(Cl)c1CSc1ccc(-c2ccco2)nn1` as the compound, how does the EC50 [8] read?
Its EC50 is > 50 µM (active).

Which EC50 [8] does the source give for `CCCCCN1C(=O)/C(=C/c2c(N3CCc4ccccc4C3)nc3ccccn3c2=O)SC1=S` here?
Its EC50 is > 50 µM (active).

With `c1csc(CNc2nc(-c3cccs3)nc3ccccc23)c1` as the compound, how does the EC50 [1] read?
The EC50 was 4.73 µM (active).

Which AC50 [14] does the source give for `O=[N+]([O-])c1ccc(/C=N/N=C/c2ccc([N+](=O)[O-])o2)o1` here?
Its AC50 is 9.36 µM (active).

Which IC50 (Nonstructural protein 1) does the source give for `O=[N+]([O-])c1cccc(/C=N/c2cc3c(cc2Br)OCCO3)c1` here?
The IC50 was > 100 µM (active).
